Source: publication PMC9686985, “Chimeric Peptides Derived from Bovine Lactoferricin and Buforin II: Antifungal Activity against Reference Strains and Clinical Isolates of Candida spp” (Antibiotics, 2022)
Like-named read-outs stand apart in the source and are kept apart here. Positions of bridges follow the written chain, without caps; N, C: chain ends. Non-standard residues stand in square brackets, D forms with d. Residues, ends and D or L forms follow the SMILES beside them. Chains are numbered I, II in the order given. No end group written: not given here. Ahx = NCCCCCC(=O)O

How the values were obtained:
C. albicans ATCC SC5314 [1] = assay type: cell-based, Candida albicans
Procedure: (§1) Antifungal susceptibility testing was carried out using the broth microdilution (BMD) method, following the CLSI M27-A3 guidelines with slight modifications. Briefly, cells (0.5–2.5 × 10^3 CFU/mL) were incubated with peptides (200, 100, 50, 25, 12.5, and 6.25 µg/mL) at 37 °C for 48 h. MICs were visualized and densitometry (595 nm, microplate reader, Bio-Rad, ᵢMark^TM) was used to determine the lowest concentration of peptide that caused a significant decrease (MIC/2 or ≥50%) compared with the growth control (cells incubated in absence of peptide) (n = 3). In order to verify that the peptides were able to kill the yeast cells, the plates were also evaluated for minimum fungicidal concentration (MFC). Briefly, aliquots from each well from susceptibility testing assays were transferred to plates containing Sabouraud dextrose agar (SDA), which were then incubated at 37 °C for 24 h. The highest dilution with no growth on the agar plate was considered to be the MFC.

C. albicans 256 HUSI-PUJ [2] = assay type: cell-based, Candida albicans; conditions: for MFC: 24 h; for MIC: 48 h
Procedure: as §1

C. albicans SC5314 = assay type: cell-based, Candida albicans; conditions: for Time-kill result: Fungicide concentration / Time-kill result: Fungistatic concentration: after 48 h of incubation, RPMI 1640, 37 °C, Bioscreen C
Procedure: (§2) A time-kill kinetic assay was carried out according to the method previously described by Pfaller and coworkers with minor modifications. The peptides (C5, C6, C8, and C9) diluted in RPMI were tested at a range of concentrations: 0 (control), 0.2, 0.5, 1, and 2 times the MIC value for each strain. The isolates were subcultured on SBD, and then an inoculum was adjusted to a 0.5–2.5 × 10^3 CFU/mL in an RPMI 1640 medium. Yeast inoculum (150 uL) was added to a 100-well plate containing serial dilutions of the peptides. The plates were incubated with agitation at 37 °C in a plate reader (Bioscreen C MBR automated turbidometric analyzer, Growth Curves Ltd., Helsinki, Finland), which takes hourly absorbance readings. Moreover, fluconazole MICs were used as a control. The readings were analyzed with Bioscreen software (Growth Curves USA, Piscataway, NJ, USA) and GraphPad Prism 8.0.1 (GraphPad Soft-ware, San Diego, CA, USA). Statistical comparisons were made using an analysis of variance (two-way ANOVA) followed by a Tukey–Kramer post hoc test. P values less than 0.005 were considered significant. […] Moreover, previously determined FLC MICs (data not shown) were used as a control.

C. albicans 256 = assay type: cell-based, Candida albicans; conditions: for Time-kill result: Fungicide concentration / Time-kill result: Fungistatic concentration: after 48 h of incubation, RPMI 1640, 37 °C, Bioscreen C
Procedure: as §2

C. albicans ATCC SC5314 [3] = assay type: cell-based, Candida albicans; remark: listed apart in the source
Procedure: (§3) The in vitro interactions between the peptides (C6, C8, and C9) and the FLC drug were evaluated in a checkerboard assay, as previously described by Cokol et al.. Briefly, each isolate was prepared by picking colonies from an overnight culture in SBD at 37 °C and suspended in a sterile normal saline PBS buffer. The fungal inoculum was adjusted to 0.5 MacFarland and the inoculum was adjusted to 0.5–2.5 × 10^3 CFU/mL. The drug-peptide combinations were formed over a range of concentrations: 0 (control) and 0.06 to 2 times the MIC [51]. The fractional inhibitory concentration index (FICI) was calculated as follows:
(§4) FICI=CML peptide in combination/CMI peptide alone+CML FLC in combination/CMI FLC alone
(§5) The calculated FICI was reported as synergy with values FICI ≤ 0.5, additive FICI > 0.5–1, indifference FICI > 1–4, and antagonism FICI ≥ 4 [52].
(§6) A synergistic effect was considered to be when the effect of the combination exceeded the effects of the individual components. An additive effect was when the effect of the combination was equal to the sum of the effects of the individual components.

C. albicans 256 HUSI-PUJ [4] = assay type: cell-based, Candida albicans
Procedure: as §3, §4, §5, §6

human red blood cells = system: human red blood cells; parameters: method as in PMID 33369144; conditions: cited from earlier work
[5] = FLC-sensitive reference strain, aliquots plated on SDA, 37 °C, 24 h, no growth
[6] = FLC-sensitive reference strain, broth microdilution CLSI M27-A3, 37 °C, 48 h, ≥50% decrease vs growth control, n = 3
[7] = FLC-resistant clinical isolate, aliquots plated on SDA, 37 °C, no growth
[8] = FLC-resistant clinical isolate, broth microdilution CLSI M27-A3, 37 °C, ≥50% decrease vs growth control, n = 3
[9] = fungistatic = growth inhibition >70% for 48 h
[10] = time-kill curve, peptide at 12.5 µg/mL (4 µM)

Compound | MFC (C. albicans ATCC SC5314 [1]; ATCC SC5314, 24 h) [µM] | MIC (C. albicans ATCC SC5314 [1]; ATCC SC5314, 48 h) [µM] | MFC (C. albicans ATCC SC5314 [1]; [5]) [µg/mL] | MIC (C. albicans ATCC SC5314 [1]; [6]) [µg/mL] | MFC (C. albicans 256 HUSI-PUJ [2]; 256 HUSI-PUJ) [µM] | MIC (C. albicans 256 HUSI-PUJ [2]; 256 HUSI-PUJ) [µM] | MFC (C. albicans 256 HUSI-PUJ [2]; [7]) [µg/mL] | MIC (C. albicans 256 HUSI-PUJ [2]; [8]) [µg/mL] | other results
CC(C)C[C@H](NC(=O)[C@H](CC(C)C)NC(=O)[C@H](CCCNC(=N)N)NC(=O)CCCCCNC(=O)[C@H](CCCNC(=N)N)NC(=O)[C@H](Cc1c[nH]c2ccccc12)NC(=O)[C@H](CCC(N)=O)NC(=O)[C@H](Cc1c[nH]c2ccccc12)NC(=O)[C@H](CCCNC(=N)N)NC(=O)[C@@H](N)CCCNC(=N)N)C(=O)N[C@@H](CCCNC(=N)N)C(N)=O [C2] (H-RRWQWR[Ahx]RLLR-NH2; N-terminus assumed) | > 122 | 122 | > 200 | 200 | > 122 | 122 | > 200 | 200 | 
CC(C)C[C@H](NC(=O)[C@H](CC(C)C)NC(=O)[C@H](CCCNC(=N)N)NC(=O)[C@H](CCCNC(=N)N)NC(=O)[C@H](CC(C)C)NC(=O)[C@H](CC(C)C)NC(=O)[C@H](CCCNC(=N)N)NC(=O)CCCCCNC(=O)[C@H](CCCCNC(=O)[C@H](CCCNC(=N)N)NC(=O)[C@H](Cc1c[nH]c2ccccc12)NC(=O)[C@H](CCC(N)=O)NC(=O)[C@H](Cc1c[nH]c2ccccc12)NC(=O)[C@H](CCCNC(=N)N)NC(=O)[C@@H](N)CCCNC(=N)N)NC(=O)[C@H](CCCNC(=N)N)NC(=O)[C@H](Cc1c[nH]c2ccccc12)NC(=O)[C@H](CCC(N)=O)NC(=O)[C@H](Cc1c[nH]c2ccccc12)NC(=O)[C@H](CCCNC(=N)N)NC(=O)[C@@H](N)CCCNC(=N)N)C(=O)N[C@@H](CCCNC(=N)N)C(N)=O [C9] (I: H-RRWQWRK[Ahx]RLLRRLLR-NH2 / II: H-RRWQWR; amide I:7-II:C; N-terminus assumed) | 15 | 15 | 50 | 50 | 15 | 15 | 50 | 50 | Inhibition of growth (C. albicans SC5314; SC5314, 48 h): more than 90%; Time-kill result: Fungicide concentration (C. albicans SC5314; fungicidal = yeast kill ≥99%): 25 µg/mL; Time-kill result: Fungistatic concentration (C. albicans SC5314; [9]): 13 µg/mL; Time-kill result: Fungicide concentration (C. albicans SC5314; value in brackets): 8 µM; Time-kill result: Fungistatic concentration (C. albicans SC5314; value in brackets): 4 µM; Incubation time up to which strain growth was completely inhibited (C. albicans SC5314; [10]): approximately 20 h; Inhibition of growth (C. albicans 256; 256, 48 h): more than 90%; Time-kill result: Fungicide concentration (C. albicans 256; fungicidal = yeast kill ≥99%): 25 µg/mL; Time-kill result: Fungistatic concentration (C. albicans 256; [9]): 13 µg/mL; Time-kill result: Fungicide concentration (C. albicans 256; value in brackets): 8 µM; Time-kill result: Fungistatic concentration (C. albicans 256; value in brackets): 4 µM; Incubation time up to which strain growth was completely inhibited (C. albicans 256; [10]): approximately 20 h; MICa: MIC of the chimeric peptide alone (C. albicans ATCC SC5314 [3]; ATCC SC5314): 100 µg/mL; Effect of the combination with FLC (by FICI) (C. albicans ATCC SC5314 [3]; checkerboard): synergistic; MICa/A: factor by which the chimera is potentiated in combination (C. albicans ATCC SC5314 [3]; peptide combined with FLC): 4; MICa: MIC of the chimeric peptide alone (C. albicans 256 HUSI-PUJ [4]; 256 HUSI-PUJ): 50 µg/mL; MICa/A: factor by which the chimera is potentiated in combination (C. albicans 256 HUSI-PUJ [4]; peptide combined with FLC): 2
RLLRRLLR [BFII (32–35)Pal, reference compound] | > 183 | > 183 |  |  | > 183 | > 183 |  |  | 
RLLRRRWQWR-NH2 [C3] | 131 | 66 |  |  | 131 | 66 |  |  | Hemolytic effect (human red blood cells): 2–4%
